Literature values, collected in patent publication US20260116844A1, “LIPID NANOPARTICLE FORMULATION COMPRISING IONIZED LIPIDS WITH BRANCHED STRUCTURE, AND USE THEREOF” (SurgiNex Co., Ltd., priority 2022, published 2026).

Test system: blood coagulation factor FVII

In the case of `CCCCC/C=C\C/C=C\CCCCCCCCC(CCCCCCCC/C=C\C/C=C\CCCCC)OC(=O)CCCN(C)C` [Dlin-MC3-DMA], the ED50 (mouse FVII model, siRNA delivery) is given as 5 µg/kg and the “times more effective than existing ionized lipids” value (mouse, in vivo) is given as “approximately 1000 times”.
